Data: patent US10634665B2 (priority 2014, dated 2020)

Tested on: BEAS-2B epithelium
Assay: Drug toxicity test in bronchiolar device (LDH release)
Type: cell-based
Details: 0.1, 1.0 and 10 μM in BEGM medium, recirculating 10 μL/min, 48 hours, bronchiolar device of FIG. 27; FIG. 95A
Description: FIGS. 95A-95D show drug toxicity results obtained from using a bronchiolar device embodiment described herein; FIG. 95A is a graph of camptothecin concentration (μM) vs. cytotoxicity (% LDH release) illustrating the cytotoxicity of camptothecin as measured after having passed through the bronchiolar device; […] show images of fluorescent microbead deposition on a central lumen associated with cells.
Drug toxicity was tested using a bronchiolar device as described herein. A pro-apoptotic anti-cancer drug, camptothecin, was chosen to monitor drug toxicity in the bronchiolar device illustrated in FIG. 27. Different concentrations of camptothecin (0.1, 1.0 and 10 μM) were prepared by diluting the original stock solution (2 mg/mL in DMSO) with BEGM culturing medium. After the lumen of a hollow tube of the device was covered with BEAS-2B epithelium, medium in the medium reservoir (which was connected to a maintaining system) was replaced with individual concentrations of the camptothecin medium solution to allow the circulating flow into medium chamber of device. The tubing connected to hollow tube was closed and the recirculating flow rate was set to 10 μL/min to allow camptothecin to diffuse into the bronchiolar epithelium for 48 hours.

`CC[C@@]1(O)C(=O)OCc2c1cc1n(c2=O)Cc2cc3ccccc3nc2-1` [camptothecin] was tested, and the “cytotoxicity (% LDH release) versus camptothecin concentration” value was “drug dose dependence was observed”.
